Tested on: mice
Assay: pentobarbital-induced sleep test in mice (sleep latency and total sleeping time)
Assay type: in vivo
Conditions: 30 minutes before pentobarbital 45 mg/kg i.p.
Protocol: A sleep disorder refers to syndromes in which one cannot fall asleep well and the total sleeping time is short. In order to confirm the effect of improving the sleep quality of beta-lapachone, mice were purchased from Orient Bio Co. Beta-lapachone (Sigma Aldrich) was administered once intraperitoneally or orally to mice at a dose of 0.03, 0.1, 0.3, or 1 mg/kg by concentration, respectively, 30 minutes before induction of sleep, and 0.9% physiological saline was administered to the control mice, and 1 mg/kg of diazepam (MYUNG IN Pharm. Co.), most popular used sleeping pill, was administered intraperitoneally or orally to the positive control mice. 45 mg/kg of pentobarbital ([…] Pharm. Co., Ltd.), a commercially used sedative and sleeping pill, was intraperitoneally administered to mice to induce sleeping after 30 minutes of the above administration.

With `CC1(C)CCC2=C(O1)c1ccccc1C(=O)C2=O` [beta-lapachone] the sleep latency (single intraperitoneal administration at 0.03, 0.1, 0.3 or 1 mg/kg, FIG. 1) was “shortened in a concentration-dependent manner”, the total sleeping time (single intraperitoneal administration at 0.03, 0.1, 0.3 or 1 mg/kg, FIG. 2) was “increased in a concentration-dependent manner” and the sleep latency (single oral administration at 0.03, 0.1, 0.3 or 1 mg/kg, FIG. 3) was “shortened in a concentration-dependent manner”. For the same compound, the total sleeping time (single oral administration at 0.03, 0.1, 0.3 or 1 mg/kg, FIG. 4) was “increased in a concentration-dependent manner”.

Source: patent US11278515B2, “Composition for improvement of sleep or for prevention or treatment of sleep disorders, containing beta-lapachone” (AJOU UNIVERSITY INDUSTRY-ACADEMIC COOPERATION FOUNDATION, priority 2016, dated 2022)
